Bounds are passed on as bounds.

From patent US20250120961A1, “P53 MODULATORS” (Nested Therapeutics, Inc., priority 2023, published 2025) come the findings set out here.

In the first assay the target is His-tagged p53-Y220C DNA binding domain (Homo sapiens, UniProt P04637, Y220C). The assay can be described thus: Biochemical p53-Y220C and DNA binding assay (HTRF). The settings on record: bound printed in the heading for the reference compound; read-out: HTRF IP. In a few lines:
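DBD (aa 94-312, 100 nM) mixed with compound and biotinylated consensus dsDNA (200 nM) in DPBS/20 mM NaCl/0.5% BSA, overnight at 4 °C, then 60 min at 27-29 °C; anti-His Tb/streptavidin-d2 HTRF read. Activation normalized to reference compound (500%) and DMSO (0%); 10-point curve, inflection point reported.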
Background: Time-resolved FRET reads energy transfer from a long-lived donor to a nearby acceptor.
Consider `CN1CC[C@@H](Nc2cccc3c2cc(-c2noc(CNC(=O)c4cnn(C(C)(C)C)c4)n2)n3CC(F)(F)F)[C@@H](F)C1` [Reference Compound 1, reference compound], for which the EC50 is less than 0.1 µM.

Staying with this assay, now noted: inflection point of 10 points dose titration, 4 parameter curve fit; p53-Y220C DBD 100 nM, biotinylated dsDNA 200 nM, 27 to 29° C.; read-out: HTRF IP.
On to `CN1CC[C@@H](Nc2cccc3c(CC(F)(F)F)c(/C=N/OCc4cccc(=O)n4C)sc23)[C@@H](F)C1` [Example 2-29, (E)-7-(((3S,4R)-3-fluoro-1-methylpiperidin-4-yl)amino)-3-(2,2,2-trifluoroethyl)benzo[b]thiophene-2-carbaldehyde O-((1-methyl-6-oxo-1,6-dihydropyridin-2-yl)methyl) oxime], for which the EC50 was in the range of 0.1 to 1 µM.
As for `CO/N=C/c1sc2c(N[C@@H]3CCN(C)C[C@@H]3F)cccc2c1CC(F)(F)F` [Example 2-14, (E)-7-(((3S,4R)-3-fluoro-1-methylpiperidin-4-yl)amino)-3-(2,2,2-trifluoroethyl)benzo[b]thiophene-2-carbaldehyde O-methyl oxime], the EC50 was greater than 1 µM.
For `OC1(CO/N=C/c2sc3c(N[C@@H]4CNC[C@@H]4F)cccc3c2CC(F)(F)F)CCCCC1` [Example 1-29, (E)-7-(((3R,4S)-4-fluoropyrrolidin-3-yl)amino)-3-(2,2,2-trifluoroethyl)benzo[b]thiophene-2-carbaldehyde O-((1-hydroxycyclohexyl)methyl) oxime], the EC50 is greater than 1 µM.
In the case of `CN1CC[C@@H](Nc2cccc3c2cc(/C=N\Oc2ccccc2)n3CC(F)(F)F)[C@@H](F)C1` [Example 2-5, (Z)-4-(((3S,4R)-3-fluoro-1-methylpiperidin-4-yl)amino)-1-(2,2,2-trifluoroethyl)-1H-indole-2-carbaldehyde O-phenyl oxime], the EC50 is greater than 1 µM.
In the case of `OC1CCCC1O/N=C/c1sc2c(N[C@@H]3CNC[C@@H]3F)cccc2c1CC(F)(F)F` (stereo partly drawn) [Example 1-17, (E)-7-(((3R,4S)-4-fluoropyrrolidin-3-yl)amino)-3-(2,2,2-trifluoroethyl)benzo[b]thiophene-2-carbaldehyde O-(2-hydroxycyclopentyl) oxime], the EC50 fell in the range of 0.1 to 1 µM.
For the molecule `OC1(CO/N=C/c2sc3c(N[C@@H]4CNC[C@@H]4F)cccc3c2CC(F)(F)F)CCOCC1` [Example 1-20, (E)-7-(((3R,4S)-4-fluoropyrrolidin-3-yl)amino)-3-(2,2,2-trifluoroethyl)benzo[b]thiophene-2-carbaldehyde O-((4-hydroxytetrahydro-2H-pyran-4-yl)methyl) oxime], the EC50 fell in the range of 0.1 to 1 µM.
Still for that read-out and setting: next, `OCC1(O/N=C/c2sc3c(N[C@@H]4CNC[C@@H]4F)cccc3c2CC(F)(F)F)CCC1` [Example 1-19, (E)-7-(((3R,4S)-4-fluoropyrrolidin-3-yl)amino)-3-(2,2,2-trifluoroethyl)benzo[b]thiophene-2-carbaldehyde O-(1-(hydroxymethyl)cyclobutyl) oxime]: 0.1 to 1 µM.
Turning to `F[C@H]1CNC[C@H]1Nc1cccc2c(CC(F)(F)F)c(/C=N/OC3CCCC3)sc12` [Example 2-17, (E)-7-(((3R,4S)-4-fluoropyrrolidin-3-yl)amino)-3-(2,2,2-trifluoroethyl)benzo[b]thiophene-2-carbaldehyde O-cyclopentyl oxime], the EC50 is 0.1 to 1 µM.
On to `OC(/C=C/c1sc2c(N[C@@H]3CNC[C@@H]3F)cccc2c1CC(F)(F)F)c1ccccn1` (stereo partly drawn) [Example 5-1, (E)-3-(7-(((3R,4S)-4-fluoropyrrolidin-3-yl)amino)-3-(2,2,2-trifluoroethyl)benzo[b]thiophen-2-yl)-1-(pyridin-2-yl)prop-2-en-1-ol], for which the EC50 is greater than 1 µM.
On the same count and under the same terms, under `COc1cccc(CO/N=C\c2sc3c(N[C@@H]4CCN(C)C[C@@H]4F)cccc3c2CC(F)(F)F)n1` [Example 2-28, (Z)-7-(((3S,4R)-3-fluoro-1-methylpiperidin-4-yl)amino)-3-(2,2,2-trifluoroethyl)benzo[b]thiophene-2-carbaldehyde O-((6-methoxypyridin-2-yl)methyl) oxime] stands 0.1 to 1 µM; under `CC[C@@H](CO)O/N=C/c1sc2c(N[C@@H]3CNC[C@@H]3F)cccc2c1CC(F)(F)F` [Example 1-2, (E)-7-(((3R,4S)-4-fluoropyrrolidin-3-yl)amino)-3-(2,2,2-trifluoroethyl)benzo[b]thiophene-2-carbaldehyde O-((S)-1-hydroxybutan-2-yl) oxime], greater than 1 µM; under `OC1(CO/N=C/c2sc3c(N[C@@H]4CNC[C@@H]4F)cccc3c2CC(F)(F)F)CCCC1` [Example 1-14, (E)-7-(((3R,4S)-4-fluoropyrrolidin-3-yl)amino)-3-(2,2,2-trifluoroethyl)benzo[b]thiophene-2-carbaldehyde O-((1-hydroxycyclopentyl)methyl) oxime], 0.1 to 1 µM.
Same read-out and setting: under `OC1(CO/N=C\c2sc3c(N[C@@H]4CNC[C@@H]4F)cccc3c2CC(F)(F)F)CCCCC1` [Example 1-31, (Z)-7-(((3R,4S)-4-fluoropyrrolidin-3-yl)amino)-3-(2,2,2-trifluoroethyl)benzo[b]thiophene-2-carbaldehyde O-((1-hydroxycyclohexyl)methyl) oxime] stands greater than 1 µM; under `Cc1oc(=O)oc1CO/N=C/c1sc2c(N[C@@H]3CNC[C@@H]3F)cccc2c1CC(F)(F)F` [Example 2-20, (E)-7-(((3R,4S)-4-fluoropyrrolidin-3-yl)amino)-3-(2,2,2-trifluoroethyl)benzo[b]thiophene-2-carbaldehyde O-((5-methyl-2-oxo-1,3-dioxol-4-yl)methyl) oxime], 0.1 to 1 µM.
On the same count and under the same terms, next, `CNC(=O)c1ccc(CO/N=C/c2oc3c(N[C@@H]4CCN(C)C[C@@H]4F)cccc3c2SC(F)(F)F)c(NC)c1` [Example 2-34, 4-(((((E)-(7-(((3S,4R)-3-fluoro-1-methylpiperidin-4-yl)amino)-3-((trifluoromethyl)thio)benzofuran-2-yl)methylene)amino)oxy)methyl)-N-methyl-3-(methylamino)benzamide]: greater than 1 µM; `CC(O)CO/N=C/c1sc2c(N[C@@H]3CCNC[C@@H]3F)cccc2c1CC(F)(F)F` (stereo partly drawn) [Example 2-13, (E)-7-(((3S,4R)-3-fluoropiperidin-4-yl)amino)-3-(2,2,2-trifluoroethyl)benzo[b]thiophene-2-carbaldehyde O-(2-hydroxypropyl) oxime]: 0.1 to 1 µM; `CC(CO)(O/N=C/c1sc2c(N[C@@H]3CNC[C@@H]3F)cccc2c1CC(F)(F)F)c1ccccc1` (stereo partly drawn) [Example 1-23, (E)-7-(((3R,4S)-4-fluoropyrrolidin-3-yl)amino)-3-(2,2,2-trifluoroethyl)benzo[b]thiophene-2-carbaldehyde O-(1-hydroxy-2-phenylpropan-2-yl) oxime]: greater than 1 µM.
In the case of `COc1cccc(CO/N=C/c2sc3c(N[C@@H]4CCN(C)C[C@@H]4F)cccc3c2CC(F)(F)F)n1` [Example 2-27, (E)-7-(((3S,4R)-3-fluoro-1-methylpiperidin-4-yl)amino)-3-(2,2,2-trifluoroethyl)benzo[b]thiophene-2-carbaldehyde O-((6-methoxypyridin-2-yl)methyl) oxime], the EC50 lay within 0.1 to 1 µM.
Take `CN1CC[C@@H](Nc2cccc3c(CC(F)(F)F)c(/C=C/C(O)c4cn[nH]c4)sc23)[C@@H](F)C1` (stereo partly drawn) [Example 5-8, (E)-3-(7-(((3S,4R)-3-fluoro-1-methylpiperidin-4-yl)amino)-3-(2,2,2-trifluoroethyl)benzo[b]thiophen-2-yl)-1-(1H-pyrazol-4-yl)prop-2-en-1-ol]: the EC50 is 0.1 to 1 µM.
As to `Cc1cc(CO/N=C/c2sc3c(N[C@@H]4CNC[C@@H]4F)cccc3c2CC(F)(F)F)no1` [Example 3-7, (E)-7-(((3R,4S)-4-fluoropyrrolidin-3-yl)amino)-3-(2,2,2-trifluoroethyl)benzo[b]thiophene-2-carbaldehyde O-((5-methylisoxazol-3-yl)methyl) oxime], the EC50 was in the range of 0.1 to 1 µM.
In the case of `Cn1cnc(CO/N=C/c2sc3c(N[C@@H]4CNC[C@@H]4F)cccc3c2CC(F)(F)F)n1` [Example 3-4, (E)-7-(((3R,4S)-4-fluoropyrrolidin-3-yl)amino)-3-(2,2,2-trifluoroethyl)benzo[b]thiophene-2-carbaldehyde O-((1-methyl-1H-1,2,4-triazol-3-yl)methyl) oxime], the EC50 is 0.1 to 1 µM.
As for `CN1CC[C@@H](Nc2cccc3c2cc(-c2noc(CNC(=O)c4cnn(C(C)(C)C)c4)n2)n3CC(F)(F)F)[C@@H](F)C1` [Reference Compound 1, reference compound], the EC50 is less than 0.1 µM.
Turning to `CC(O)(CO/N=C/c1sc2c(N[C@@H]3CNC[C@@H]3F)cccc2c1CC(F)(F)F)c1ccccc1` (stereo in doubt) [Example 1-24, (E)-7-(((3R,4S)-4-fluoropyrrolidin-3-yl)amino)-3-(2,2,2-trifluoroethyl)benzo[b]thiophene-2-carbaldehyde O-(2-hydroxy-2-phenylpropyl) oxime], the EC50 was in the range of 0.1 to 1 µM.
As for `CC(=O)N1CCC(=Cc2sc3c(N[C@@H]4CCNC[C@@H]4F)cccc3c2CC(F)(F)F)CC1` [Example 4-2, 1-(4-((7-(((3S,4R)-3-fluoropiperidin-4-yl)amino)-3-(2,2,2-trifluoroethyl)benzo[b]thiophen-2-yl)methylene)piperidin-1-yl)ethan-1-one], the EC50 is greater than 1 µM.
Regarding `NCC(CO)O/N=C/c1sc2c(N[C@@H]3CNC[C@@H]3F)cccc2c1CC(F)(F)F` (stereo partly drawn) [Example 1-9, (E)-7-(((3R,4S)-4-fluoropyrrolidin-3-yl)amino)-3-(2,2,2-trifluoroethyl)benzo[b]thiophene-2-carbaldehyde O-(1-amino-3-hydroxypropan-2-yl) oxime], the EC50 is greater than 1 µM.
With `CN1CC[C@@H](Nc2cccc3c(CC(F)(F)F)c(/C=C/C(O)c4cnn5ccccc45)sc23)[C@@H](F)C1` (stereo partly drawn) [Example 5-6, (E)-3-(7-(((3S,4R)-3-fluoro-1-methylpiperidin-4-yl)amino)-3-(2,2,2-trifluoroethyl)benzo[b]thiophen-2-yl)-1-(pyrazolo[1,5-a]pyridin-3-yl)prop-2-en-1-ol], the EC50 is 0.1 to 1 µM.
